# Assay results: PMC7846798, “Population pharmacokinetic modeling and clinical application of vancomycin in Chinese patients hospitalized in intensive care units” (Scientific Reports, 2021)
# “Also recorded” adds a separate entry of the source. Where two headings read alike, the source gives them in different places. Marks after values point to notes of the source that are not given here.
# How the values were obtained:
# [1] = Vancomycin serum concentrations (trough and approach peak) by HPLC; assay type: in vivo, human; details: n = 374 ICU patients
# Protocol: Ctrough means trough concentration that of blood samples collected 0.5 h before the next dose; Cappro peak means approach peak concentration that of the blood samples collected 1 h after completion of drug infusion.
# [2] = cited from earlier work
# Description: We reasonably fitted the plots of concentrations versus time with one-compartment models for most serum samples (n = 837) collected during the trough period (156 samples were collected during the approach peak period).
# [3] = Population pharmacokinetic analysis of vancomycin (nonlinear mixed-effects modeling, Kinetica, one-compartment model)
# Protocol: Data collected from patients’ medical records included age, total body weight, Sex, creatinine level, drug combination, and burn and continuous renal replacement therapy status (Burn-S, CRRT-S).
# A total of 837 trough concentration (Ctrough) blood samples were collected 0.5 h before the next dose (after CRRT treatment for CRRT treatment patients), and 156 samples were collected at approach peak concentration (1 h after the peak concentration), both at the steady state (after the 6th dose) for most patients. All the samples (3–5 ml) were placed in 10 ml tubes containing coagulant and then centrifuged at 3000 rpm for 5 min. The supernatant serum was stored at − 80 °C for further testing.
# The multilevel calibration was 0.4–100.0 μg/ml with calibration line slope consistently > 0.999. The RSD of intra-day and inter-day assays were less than 7%, and the recovery rate was 95.5–103.2%. Serum creatinine was detected by the creatine oxidase method with a biochemistry analyzer (Beckmann CX5).
# As most of the trough concentrations of vancomycin was collected from sparse data at steady state, we fit the data with a one-compartment model to retrieve the pharmacokinetic parameters (CL and V).The covariate models and interindividual variability were expressed as following equation: βi=Ziβ+ηj, where βj denote as the parameter for the jth subject; Zj is amatrix depending on the covariates Zj. When no covariates are included, β is the (p*1) vector of the mean parameters; ηj is the interindividual variability that is assumed normal distribution with mean 0 and covariance matrix C (p*p).
# [4] = Christine, 102 patients, unstable renal function
# [5] = used as initial estimate, Chinese adult patients, ref Ji et al. [6]
# [6] = values reported by other studies in non-ICU patients
# [7] = basic model (no covariates), Chinese ICU adult patients, population mean (RSE%)
smiles,measurement,setting,value
CN[C@H](CC(C)C)C(=O)N[C@H]1C(=O)N[C@@H](CC(N)=O)C(=O)N[C@H]2C(=O)N[C@H]3C(=O)N[C@H](C(=O)N[C@H](C(=O)O)c4cc(O)cc(O)c4-c4cc3ccc4O)[C@H](O)c3ccc(c(Cl)c3)Oc3cc2cc(c3O[C@@H]2O[C@H](CO)[C@@H](O)[C@H](O)[C@H]2O[C@H]2C[C@](C)(N)[C@H](O)[C@H](C)O2)Oc2ccc(cc2Cl)[C@H]1O [vancomycin],Ctrough (trough concentration),"[1]; blood samples collected 0.5 h before the next dose, steady state (after the 6th dose), regimens 0.5 g qd to 1 g q12h",16.3 ± 12.4
same,Cappro peak (approach peak concentration),"[1]; blood samples collected 1 h after completion of drug infusion, steady state",36.0 ± 19.4
same,Final model of CL,[2]; [4],CL(L·h^−1) = 2.97*(1 + 0.0205*(CLCr − CLCrMedian))
same,V,[2]; [4],1.24 L/kg
same,V,[2]; ICU patients with Cr > 88.4 μmol/l,148.19 L
same,V,[2]; ICU patients with Cr value below 88.4 μmol/l,59.86 L
same,Final model of CL,"[2]; Llopis, 30 ICU patients",CL(L·h^−1) = 0.034*CLCr(ml·min^−1) + 0.015* TBW
same,Final model of Vc (central compartment volume),"[2]; Llopis, 30 ICU patients",Vc (L) = 0.414* TBW
same,Final model of Vp (peripheral compartment volume),"[2]; Llopis, 30 ICU patients",Vp (L) = 1.32*TBW
same,Final model of CL,"[2]; Natalia, 191 ICU patients",CL(ml·min^−1·kg^−1) = 0.67*CLCr (ml·min^−1 ·kg^−1) + AGE^−0.24
same,Final model of V,"[2]; Natalia, 191 ICU patients","V (L·kg^−1) = 0.82*2.49^A, A = 0 or 1 if Cr ≤ 88.4 or Cr > 88.4 μmol/L"
same,Final model of CL,"[2]; Yasuhara, 190 adult Japanese, if CLCr < 85","CL(L·h^−1) = 0.0487*CLCr(ml·min^−1),"
same,CL,"[2]; Yasuhara, 190 adult Japanese, if CLCr > 85",3.51 L/h
same,initial pharmacokinetic parameter CL,[2]; [5],2.83 L/h
same,initial pharmacokinetic parameter V,[2]; [5],52.14 L
same,CL,[2]; [6],2.89 to 5.93 L/h
same,V,[2]; [6],31.24 to 91.76 L
same,CL (RSE%),[3]; [7],2.63 (25.72) L/h
same,V (RSE%),[3]; [7],55.32 (27.31) L
same,Final covariate equation of V,"[3]; final model, Cr μmol/L, Age y, TBW kg",V = 46.47 − 0.04*Cr − 0.07*Age + 0.16* TBW
same,Final covariate equation of CL,"[3]; final model, DA dopamine (1 not used, 2 used), Cr μmol/L, Burn-S (1 burn > 50%, 2 < 50%), TBW kg, CRRT-S (1 CRRT, 2 not)",CL = 0.78 + 0.036*DA − 0.007*Cr − 0.43*Burn-S + 0.067*TBW + 0.41*CRRT-S; also recorded: CL =0.78 + 0.036*DA − 0.007*Cr -0.43* Burn-S + 0.067*TBW + 0.41* CRRT-S
same,CL (RSE%),"[3]; final population model, Chinese ICU adult patients, one-compartment, EM algorithm, Kinetica 4.4.1, 294 patients for model building, serum HPLC, population mean",3.16 (56.01) L/h
